Reference: ChEMBL document CHEMBL4814006, “Novel amino substituted tetracyclic imidazo[4,5-b]pyridine derivatives: Design, synthesis, antiproliferative activity and DNA/RNA binding study” (Eur J Med Chem, 2021)
Calls of active or inactive are those of the source. The rule behind the calls is not given here.

Experiments:
HCT-116 = assay: Antiproliferative activity against human HCT-116 cells assessed as inhibition of cell growth incubated for 72 hrs by MTT assay; format: functional, cell-based; settings: HCT-116, 72 h
NCI-H460 = assay: Antiproliferative activity against human NCI-H460 cells assessed as inhibition of cell growth incubated for 72 hrs by MTT assay; format: functional, cell-based; settings: NCI-H460, 72 h
MCF7 = assay: Antiproliferative activity against human MCF7 cells assessed as inhibition of cell growth incubated for 72 hrs by MTT assay; format: functional, cell-based; settings: MCF7, 72 h
Quadruplex DNA [1] = assay: Binding affinity to human Tel22 G quadruplex DNA in sodium cacodylate buffer at pH 7 by CD spectroscopy; format: nucleic-acid assay
HEK293 = assay: Cytotoxicity against human HEK293 cells assessed as inhibition of cell growth incubated for 72 hrs by MTT assay; format: cell-based; settings: HEK293, 72 h
Calf thymus DNA [2] = assay: Binding affinity to calf thymus DNA assessed as binding constant in sodium cacodylate buffer at pH 7 by fluorescence spectroscopy; settings: Bos taurus
Calf thymus DNA [3] = assay: Binding affinity to calf thymus DNA assessed as ratio of bound compound to polynucleotide phosphate in sodium cacodylate buffer at pH 7 by fluorescence spectroscopy based Scatchard analysis; settings: Bos taurus
Calf thymus DNA [4] = assay: Binding affinity to calf thymus DNA assessed as ratio of fluorescence intensity of compound-polynucleotide complex to fluorescence intensity of compound in sodium cacodylate buffer at pH 7 by fluorescence spectroscopy based Scatchard method; settings: Bos taurus
[5] = system: Poly(dA-dU)oligonucleotide; assay: Binding affinity to polyA-polyU RNA (unknown origin) assessed as binding constant in sodium cacodylate buffer at pH 7 by fluorescence spectroscopy; format: nucleic-acid assay
[6] = system: Poly(dA-dU)oligonucleotide; assay: Binding affinity to polyA-polyU RNA (unknown origin) assessed as ratio of bound compound to polynucleotide phosphate in sodium cacodylate buffer at pH 7 by fluorescence spectroscopy based Scatchard method; format: nucleic-acid assay
[7] = system: Poly(dA-dU)oligonucleotide; assay: Binding affinity to polyA-polyU RNA (unknown origin) assessed as ratio of fluorescence intensity of compound-polynucleotide complex to fluorescence intensity of compound in sodium cacodylate buffer at pH 7 by fluorescence spectroscopy based Scatchard method; format: nucleic-acid assay
[8] = system: Poly(dA-dT)oligonucleotide; assay: Binding affinity to poly(dAdT)2 DNA (unknown origin) assessed as binding constant in sodium cacodylate buffer at pH 7 by fluorescence spectroscopy; format: nucleic-acid assay
[9] = system: Poly(dA-dT)oligonucleotide; assay: Binding affinity to poly(dAdT)2 DNA (unknown origin) assessed as ratio of bound compound to polynucleotide phosphate in sodium cacodylate buffer at pH 7 by fluorescence spectroscopy based Scatchard method; format: nucleic-acid assay
[10] = system: Poly(dA-dT)oligonucleotide; assay: Binding affinity to poly(dAdT)2 DNA (unknown origin) assessed as ratio of fluorescence intensity of compound-polynucleotide complex to fluorescence intensity of compound in sodium cacodylate buffer at pH 7 by fluorescence spectroscopy based Scatchard method; format: nucleic-acid assay
[11] = system: Poly(dG-dC)oligonucleotide; assay: Binding affinity to poly(dGdC)2 DNA (unknown origin) assessed as binding constant in sodium cacodylate buffer at pH 7 by fluorescence spectroscopy; format: nucleic-acid assay
[12] = system: Poly(dG-dC)oligonucleotide; assay: Binding affinity to poly(dGdC)2 DNA (unknown origin) assessed as ratio of bound compound to polynucleotide phosphate in sodium cacodylate buffer at pH 7 by fluorescence spectroscopy based Scatchard method; format: nucleic-acid assay
[13] = system: Poly(dG-dC)oligonucleotide; assay: Binding affinity to poly(dGdC)2 DNA (unknown origin) assessed as ratio of fluorescence intensity of compound-polynucleotide complex to fluorescence intensity of compound in sodium cacodylate buffer at pH 7 by fluorescence spectroscopy based Scatchard method; format: nucleic-acid assay
Calf thymus DNA [14] = assay: Binding affinity to calf thymus DNA assessed as change in melting temperature in sodium cacodylate buffer at pH 7 at compound:polynucleotide concentration ratio of 0.3 by UV/Vis spectrophotometric analysis; format: nucleic-acid assay; settings: Bos taurus
[15] = system: Poly(dA-dU)oligonucleotide; assay: Binding affinity to polyA-polyU RNA (unknown origin) assessed as change in melting temperature in sodium cacodylate buffer at pH 7 at compound:polynucleotide concentration ratio of 0.3 by UV/vis spectrophotometric analysis; format: nucleic-acid assay
[16] = system: Poly(dA-dT)oligonucleotide; assay: Binding affinity to poly(dAdT)2 DNA (unknown origin) assessed as change in melting temperature in sodium cacodylate buffer at pH 7 at compound:polynucleotide concentration ratio of 0.3 by UV/Vis spectrophotometric analysis; format: nucleic-acid assay
Quadruplex DNA [17] = assay: Binding affinity to human Tel22 G quadruplex DNA assessed as binding constant in sodium cacodylate buffer at pH 7 at binding stoichiometry ratio of 1:1 by fluorescence spectroscopy; format: nucleic-acid assay
Quadruplex DNA [18] = assay: Binding affinity to human Tel22 G quadruplex DNA assessed as ratio of fluorescence intensity of compound-polynucleotide complex to fluorescence intensity of compound in sodium cacodylate buffer at pH 7 at binding stoichiometry ratio of 1:1 by fluorescence spectroscopy; format: nucleic-acid assay
Quadruplex DNA [19] = assay: Binding affinity to human Tel22 G quadruplex DNA assessed as change in melting temperature in sodium cacodylate buffer at pH 7 by UV/Vis spectrophotometric analysis; format: nucleic-acid assay
[20] = system: Poly(dA-dT)oligonucleotide; assay: Binding affinity to poly(dAdT)2 DNA (unknown origin) in sodium cacodylate buffer at pH 7 by CD spectroscopy; format: nucleic-acid assay
[21] = system: Poly(dG-dC)oligonucleotide; assay: Binding affinity to poly(dGdC)2 DNA (unknown origin) in sodium cacodylate buffer at pH 7 by CD spectroscopy; format: nucleic-acid assay
[22] = system: Poly(dA-dU)oligonucleotide; assay: Binding affinity to polyA-polyU RNA (unknown origin) in sodium cacodylate buffer at pH 7 by CD spectroscopy; format: nucleic-acid assay

## CC(C)CNc1ccc2c(NCC(C)C)c(C#N)c3nc4ncccc4n3c2c1
HCT-116
  IC50: 3700 nM
NCI-H460
  IC50: 7600 nM
MCF7
  IC50: 2000 nM
Quadruplex DNA [1]
  Activity: Active

## CN(C)CCCNc1ccc2cc(C#N)c3nc4cccnc4n3c2c1
HCT-116
  IC50: 400 nM
NCI-H460
  IC50: 400 nM
MCF7
  IC50: 700 nM
HEK293
  IC50: 300 nM
Calf thymus DNA [2]
  log Ks: 5.5
Calf thymus DNA [3]
  Ratio: 0.6
Calf thymus DNA [4]
  Ratio: 0.5
[5]
  log Ks: 6.3
[6]
  Ratio: 0.1
[7]
  Ratio: 0.8
[8]
  log Ks: 6.9
[9]
  Ratio: 0.2
[10]
  Ratio: 0.7
[11]
  log Ks: 5.8
[12]
  Ratio: 0.2
[13]
  Ratio: 0.4
Calf thymus DNA [14]
  ΔTm: 6.6 °C
[15]
  ΔTm: 9.5 °C
[16]
  ΔTm: 18.2 °C
Quadruplex DNA [17]
  log Ks: 5.48
Quadruplex DNA [18]
  Ratio: 0.7
Quadruplex DNA [19]
  ΔTm: 1.9 °C
[20]
  Activity: Active
[21]
  Activity: Active
[22]
  Activity: Active
Quadruplex DNA [1]
  Activity: Active

## CN(C)CCCNc1ccc2cc(C#N)c3nc4ncccc4n3c2c1
HCT-116
  IC50: 2300 nM
NCI-H460
  IC50: 11000 nM
MCF7
  IC50: 12000 nM
HEK293
  IC50: 4000 nM
Calf thymus DNA [2]
  log Ks: 6
Calf thymus DNA [3]
  Ratio: 0.4
Calf thymus DNA [4]
  Ratio: 0.5
[5]
  log Ks: 5.5
[6]
  Ratio: 0.4
[7]
  Ratio: 0.8
[8]
  log Ks: 6.4
[9]
  Ratio: 0.4
[10]
  Ratio: 0.8
[11]
  log Ks: 5.6
[12]
  Ratio: 0.4
[13]
  Ratio: 0.4
Calf thymus DNA [14]
  ΔTm: 4.2 °C
[15]
  ΔTm: 4.5 °C
[16]
  ΔTm: 9.9 °C
Quadruplex DNA [17]
  log Ks: 5.35
Quadruplex DNA [18]
  Ratio: 0.66
Quadruplex DNA [19]
  ΔTm: 2 °C
[20]
  Activity: Active
[21]
  Activity: Active
[22]
  Activity: Active
Quadruplex DNA [1]
  Activity: Active

## N#Cc1cc2ccc(F)cc2n2c1nc1ncccc12
HCT-116
  IC50: ≥ 100000 nM
NCI-H460
  IC50: ≥ 100000 nM
MCF7
  IC50: ≥ 100000 nM

## N#Cc1c(Cl)c2ccccc2n2c1nc1cccnc12
HCT-116
  IC50: 3000 nM
NCI-H460
  IC50: ≥ 100000 nM
MCF7
  IC50: 6000 nM

## N#Cc1c(N2CCCCC2)c2ccc(N3CCCCC3)cc2n2c1nc1cccnc12
HCT-116
  IC50: 1000 nM
NCI-H460
  IC50: ≥ 100000 nM
MCF7
  IC50: 500 nM
HEK293
  IC50: > 100000 nM

## N#Cc1cc2ccc(N3CCNCC3)cc2n2c1nc1cccnc12
HCT-116
  IC50: 400 nM
NCI-H460
  IC50: 400 nM
MCF7
  IC50: 400 nM
HEK293
  IC50: 700 nM

## N#Cc1c(N2CCCCC2)c2ccccc2n2c1nc1cccnc12
HCT-116
  IC50: 47000 nM
NCI-H460
  IC50: ≥ 100000 nM
MCF7
  IC50: 16000 nM

## CN(C)CCCNc1c(C#N)c2nc3cccnc3n2c2ccccc12
HCT-116
  IC50: 900 nM
NCI-H460
  IC50: 1400 nM
MCF7
  IC50: 2900 nM
HEK293
  IC50: 1800 nM

## N#Cc1c(Cl)c2ccc(F)cc2n2c1nc1ncccc12
HCT-116
  IC50: 3500 nM
NCI-H460
  IC50: ≥ 100000 nM
MCF7
  IC50: 2000 nM

## N#Cc1c(N2CCNCC2)c2ccccc2n2c1nc1cccnc12
HCT-116
  IC50: 3600 nM
NCI-H460
  IC50: 1800 nM
MCF7
  IC50: 4700 nM

## N#Cc1c(N2CCNCC2)c2ccccc2n2c1nc1ncccc12
HCT-116
  IC50: 3500 nM
NCI-H460
  IC50: 7000 nM
MCF7
  IC50: 3000 nM

## N#Cc1c(N2CCCCC2)c2ccccc2n2c1nc1ncccc12
HCT-116
  IC50: ≥ 100000 nM
NCI-H460
  IC50: ≥ 100000 nM
MCF7
  IC50: ≥ 100000 nM

## CC(C)CNc1c(C#N)c2nc3ncccc3n2c2ccccc12
HCT-116
  IC50: 14000 nM
NCI-H460
  IC50: 17500 nM
MCF7
  IC50: 14000 nM
HEK293
  IC50: > 100000 nM
Calf thymus DNA [2]
  log Ks: 4.5
Calf thymus DNA [3]
  Ratio: < 0.1
Calf thymus DNA [4]
  Ratio: 2.2
[5]
  log Ks: 4.7
[6]
  Ratio: 0.1
[7]
  Ratio: 7.1
[8]
  log Ks: 5.1
[9]
  Ratio: < 0.1
[10]
  Ratio: 8.3
[11]
  log Ks: 5.5
[12]
  Ratio: < 0.1
[13]
  Ratio: 0.5
Calf thymus DNA [14]
  ΔTm: 0 °C
[15]
  ΔTm: 0.6 °C
[16]
  ΔTm: 0 °C
Quadruplex DNA [17]
  log Ks: 4.69
Quadruplex DNA [18]
  Ratio: 4.75
Quadruplex DNA [19]
  ΔTm: 1.4 °C
[20]
  Activity: Active
[21]
  Activity: inactive
Quadruplex DNA [1]
  Activity: Active

## N#Cc1c(N2CCCCC2)c2ccc(N3CCCCC3)cc2n2c1nc1ncccc12
HCT-116
  IC50: 1800 nM
NCI-H460
  IC50: 7000 nM
MCF7
  IC50: 3600 nM

## COc1cc([C@@H]2c3cc4c(cc3[C@@H](O[C@@H]3O[C@@H]5CO[C@@H](C)O[C@H]5[C@H](O)[C@H]3O)[C@H]3COC(=O)[C@H]23)OCO4)cc(OC)c1O [ETOPOSIDE]
NCI-H460
  IC50: 100 nM
MCF7
  IC50: 1000 nM

## N#Cc1cc2ccc(F)cc2n2c1nc1cccnc12
HCT-116
  IC50: 5000 nM
NCI-H460
  IC50: ≥ 100000 nM
MCF7
  IC50: ≥ 100000 nM

## N#Cc1cc2ccc(N3CCCCC3)cc2n2c1nc1ncccc12
HCT-116
  IC50: 10000 nM
NCI-H460
  IC50: 49000 nM
MCF7
  IC50: 5000 nM

## CN(C)CCCNc1c(C#N)c2nc3ncccc3n2c2ccccc12
HCT-116
  IC50: 800 nM
NCI-H460
  IC50: 2000 nM
MCF7
  IC50: 3200 nM
HEK293
  IC50: 2600 nM

## CC(C)CNc1ccc2cc(C#N)c3nc4cccnc4n3c2c1
HCT-116
  IC50: 500 nM
NCI-H460
  IC50: 300 nM
MCF7
  IC50: 400 nM
HEK293
  IC50: 500 nM

## CC(C)CNc1ccc2c(NCC(C)C)c(C#N)c3nc4cccnc4n3c2c1
HCT-116
  IC50: 3000 nM
NCI-H460
  IC50: 5400 nM
MCF7
  IC50: 1800 nM

## N#Cc1cc2ccc(N3CCCCC3)cc2n2c1nc1cccnc12
HCT-116
  IC50: 5500 nM
NCI-H460
  IC50: ≥ 100000 nM
MCF7
  IC50: 3000 nM

## N#Cc1c(Cl)c2ccc(F)cc2n2c1nc1cccnc12
HCT-116
  IC50: 3000 nM
NCI-H460
  IC50: ≥ 100000 nM
MCF7
  IC50: 2000 nM

## N#Cc1cc2ccc(N3CCNCC3)cc2n2c1nc1ncccc12
HCT-116
  IC50: 900 nM
NCI-H460
  IC50: 7000 nM
MCF7
  IC50: 3100 nM

## CC(C)CNc1ccc2cc(C#N)c3nc4ncccc4n3c2c1
HCT-116
  IC50: 3000 nM
NCI-H460
  IC50: 12000 nM
MCF7
  IC50: 3000 nM
